Experimental data published in patent publication US8686113B2 (priority 2009, dated 2014).
In brackets after ≈: the same amount, converted by molar mass. Non-standard residues stand in square brackets, D forms with d. Residues, ends and D or L forms follow the SMILES beside them. *: point of attachment. Guan = N-terminal guanidation, N=C(N)*; dOrn = NCCC[C@@H](N)C(=O)O; code O = not defined here; Orn = NCCC[C@H](N)C(=O)O; For = O=C*

System: M. luteus 10240
Test: Growth inhibition assay (microdilution MIC)
Format: cell-based, Micrococcus luteus
Conditions: 1% TSB, 20 h at 37° C.
Description: (§1) The minimum inhibitory concentrations (MIC) of the antimicrobial peptides and peptide derivatives were determined in microdilution assays. These used a continuous peptide dilution in sterile flat-bottomed 96-well microtiter plates (polystyrene, Greiner Bio-One GmbH, Frickenhausen, Germany) and a total volume of 100 μL per well. The aqueous peptide or peptidomimetic solutions were diluted with 1% TSB water, to obtain a final concentration of 256 μg/mL. 50 μL of the peptide or peptidomimetic solution was pipetted into the first well of each series and stirred. From this solution, 50 μL was transferred to the second well, stirred and again 50 μL was transferred to the next well, and so on. A double dilution series is obtained, beginning at 256 μg/mL in the first well to 125 ng/mL in the twelfth well. The bacteria, e.g. E. coli BL21 A1, were cultured overnight at 37° C. in nutrient broth (NB, Carl Roth GmbH+Co. KG, Karlsruhe, Germany). 50 μL of a 5×10^6 bacteria/mL suspension in 1% TSB was added to each well of the microtiter plate and thus a final concentration of the peptides or peptidomimetics from 128 μg/mL (well 1) to 62.5 ng/mL (well 12) was established in each series. The plates were incubated at 37° C. for 20 h and then the absorption was measured at 595 nm with a TECAN microtiter plate spectrophotometer (Tecan Trading AG, Mannedorf, Switzerland). The MIC values of all peptides and peptidomimetics were determined in triplicate. Sterile water was used as negative control. The MIC value represents the lowest peptide concentration at which no bacterial growth is observed after an incubation time of 20 h at 37° C.
(§2) The MIC values of the peptides and peptide derivatives against Escherichia coli BL21 A1 and Micrococcus luteus ATCC 10240 are given in Table 7.

Compound | MIC M. luteus 10240 [µg/mL]
95 ({RQIKIWFQNRRMKWKKC-Ac}-GNNRPVYIPQPRPPHPRL-OH; not fully specified (bridges); printed as RQIKIWFQNRRMKWKKC-(CH2CO-GNNRPVYIPQPRPPHPRL-OH)-; also: N-terminal CH2CO attached to Cys side chain of RQIKIWFQNRRMKWKKC-OH) [compound 95] | 8
H-GNNRPVYIPQPRPPHPRL-OH [SEQ ID NO. 87, reference compound] | 64

Same assay, conditions: 10240, 20 h

Compound | MIC M. luteus 10240 [µg/mL]
CC[C@H](C)[C@H](NC(=O)[C@H](CCCNC(=N)N)NC(=O)[C@H](CCCNC(=N)N)NC(=O)[C@@H]1CCCN1C(=O)[C@@H]1CCCN1C(=O)[C@H](CCCNC(=N)N)NC(=O)[C@@H]1CCCN1C(=O)[C@H](CCCNC(=N)N)NC(=O)[C@@H]1CCCN1C(=O)[C@H](CC(C)C)NC(=O)[C@H](Cc1ccc(O)cc1)NC(=O)[C@@H]1CCCN1C(=O)[C@@H]1CCCN1C(=O)[C@H](CCCCN)NC(=O)[C@H](CC(=O)O)NC(=O)[C@@H](NC=O)C(C)C)C(=O)N[C@@H](Cc1ccc(O)cc1)C(=O)N[C@@H](CC(N)=O)C(=O)N[C@@H](CCCNC(=N)N)C(=O)O [SEQ ID NO. 81] (For-VDKPPYLPRPRPPRRIYNR-OH) | 32 (≈ 13.2 µM)
CC[C@@H](C)[C@@H](NC(=O)[C@@H](CCCNC(=N)N)NC(=O)[C@@H](CCCNC(=N)N)NC(=O)[C@H]1CCCN1C(=O)[C@H]1CCCN1C(=O)[C@@H](CCCNC(=N)N)NC(=O)[C@H]1CCCN1C(=O)[C@@H](CCCNC(=N)N)NC(=O)[C@H]1CCCN1C(=O)[C@@H](CC(C)C)NC(=O)[C@@H](Cc1ccc(O)cc1)NC(=O)[C@H]1CCCN1C(=O)[C@H]1CCCN1C(=O)[C@@H](CCCCN)NC(=O)[C@@H](CC(=O)O)NC(=O)[C@H](N)C(C)C)C(=O)N[C@H](Cc1ccc(O)cc1)C(=O)N[C@H](CC(N)=O)C(=O)N[C@H](CCCNC(=N)N)C(N)=O [SEQ ID NO. 115, vdkppylprprpprriynr-NH2] (H-[dV][dD][dK][dP][dP][dY][dL][dP][dR][dP][dR][dP][dP][dR][dR][dI][dY][dN][dR]-NH2) | 64 (≈ 26.8 µM)
CC[C@@H](C)[C@@H](NC(=O)[C@@H](CCCN)NC(=O)[C@@H](CCCNC(=N)N)NC(=O)[C@H]1CCCN1C(=O)[C@H]1CCCN1C(=O)[C@@H](CCCNC(=N)N)NC(=O)[C@H]1CCCN1C(=O)[C@@H](CCCNC(=N)N)NC(=O)[C@H]1CCCN1C(=O)[C@@H](CC(C)C)NC(=O)[C@@H](Cc1ccc(O)cc1)NC(=O)[C@H]1CCCN1C(=O)[C@H]1CCCN1C(=O)[C@@H](CCCCN)NC(=O)[C@@H](CC(=O)O)NC(=O)[C@H](N)C(C)C)C(=O)N[C@H](Cc1ccc(O)cc1)C(=O)N[C@H](CC(N)=O)C(=O)N[C@H](CCCN)C(N)=O [SEQ ID NO. 116, vdkppylprprpproiyno-NH2] (H-[dV][dD][dK][dP][dP][dY][dL][dP][dR][dP][dR][dP][dP][dR][dOrn][dI][dY][dN][dOrn]-NH2) | 128 (≈ 55.5 µM)
CC[C@H](C)[C@H](NC(=O)[C@H](CCCN)NC(=O)[C@H](CCCNC(=N)N)NC(=O)[C@@H]1CCCN1C(=O)[C@@H]1CCCN1C(=O)[C@H](CCCNC(=N)N)NC(=O)[C@@H]1CCCN1C(=O)[C@H](CCCNC(=N)N)NC(=O)[C@@H]1CCCN1C(=O)[C@H](CC(C)C)NC(=O)[C@H](Cc1ccc(O)cc1)NC(=O)[C@@H]1CCCN1C(=O)[C@@H]1CCCN1C(=O)[C@H](CCCCN)NC(=O)[C@H](CC(=O)O)NC(=O)[C@@H](N)C(C)C)C(=O)N[C@@H](Cc1ccc(O)cc1)C(=O)N[C@@H](CCC(N)=O)C(=O)N[C@@H](CCCN)C(N)=O [compound 74] (H-VDKPPYLPRPRPPR[Orn]IYQ[Orn]-NH2) | 8 (≈ 3.45 µM)
H-VDKPPYLPRPRPPRRIYN-OH [compound 28] | 128
H-VDKPPYLPRPRPPRRIYNH-NH2 [compound 53] | 16

System: E. coli BL21 A1
Test: not given
Format: cell-based, Escherichia coli
Conditions: not given
Description: as §1, §2

Compound | times lower activity / higher MIC value than oncocin against E. coli [times]
H-VDKPPYLPRPRPPRRIYNH-NH2 [SEQ ID NO. 53] | 4

Same assay, conditions: 1% TSB, 20 h at 37° C.

Compound | MIC E. coli BL21 A1 [µg/mL]
84 (Guan-VDKPPYLPRPRPPRRIYNR-NH2) [compound 84] | 32
85 (Guan-VDKPPYLPRPRPPR[code O]IYN[code O]-NH2; reading uncertain; also: printed as Guan-VDKPPYLPRPRPPROIYNO-NH2) [compound 85] | 64
95 ({RQIKIWFQNRRMKWKKC-Ac}-GNNRPVYIPQPRPPHPRL-OH; not fully specified (bridges); printed as RQIKIWFQNRRMKWKKC-(CH2CO-GNNRPVYIPQPRPPHPRL-OH)-; also: N-terminal CH2CO attached to Cys side chain of RQIKIWFQNRRMKWKKC-OH) [compound 95] | 8

Same assay, conditions: BL21, 20 h

Compound | MIC E. coli BL21 A1 [µg/mL]
CC[C@H](C)[C@H](NC(=O)[C@H](CCCN)NC(=O)[C@H](CCCNC(=N)N)NC(=O)[C@@H]1CCCN1C(=O)[C@@H]1CCCN1C(=O)[C@H](CCCNC(=N)N)NC(=O)[C@@H]1CCCN1C(=O)[C@H](CCCNC(=N)N)NC(=O)[C@@H]1CCCN1C(=O)[C@H](CC(C)C)NC(=O)[C@H](Cc1ccc(O)cc1)NC(=O)[C@@H]1CCCN1C(=O)[C@@H]1CCCN1C(=O)[C@H](CCCCN)NC(=O)[C@H](CC(=O)O)NC(=O)[C@@H](N)C(C)C)C(=O)N[C@@H](Cc1ccc(O)cc1)C(=O)N[C@@H](CCC(N)=O)C(=O)N[C@@H](CCCN)C(N)=O [SEQ ID NO. 74, VDKPPYLPRPRPPROIYQO-NH2] (H-VDKPPYLPRPRPPR[Orn]IYQ[Orn]-NH2) | 4 (≈ 1.72 µM)
CC[C@H](C)[C@H](NC(=O)[C@H](CCCNC(=N)N)NC(=O)[C@H](CCCNC(=N)N)NC(=O)[C@@H]1CCCN1C(=O)[C@@H]1CCCN1C(=O)[C@H](CCCNC(=N)N)NC(=O)[C@@H]1CCCN1C(=O)[C@H](CCCNC(=N)N)NC(=O)[C@@H]1CCCN1C(=O)[C@H](CC(C)C)NC(=O)[C@H](Cc1ccc(O)cc1)NC(=O)[C@@H]1CCCN1C(=O)[C@@H]1CCCN1C(=O)[C@H](CCCCN)NC(=O)[C@H](CC(=O)O)NC(=O)[C@@H](NC=O)C(C)C)C(=O)N[C@@H](Cc1ccc(O)cc1)C(=O)N[C@@H](CC(N)=O)C(=O)N[C@@H](CCCNC(=N)N)C(=O)O [SEQ ID NO. 81] (For-VDKPPYLPRPRPPRRIYNR-OH) | 128 (≈ 52.9 µM)
CC[C@@H](C)[C@@H](NC(=O)[C@@H](Cc1ccc(O)cc1)NC(=O)[C@@H](CC(N)=O)NC(=O)[C@H](N)CCCNC(=N)N)C(=O)N[C@H](CCCNC(=N)N)C(=O)N[C@H](CCCNC(=N)N)C(=O)N1CCC[C@@H]1C(=O)N1CCC[C@@H]1C(=O)N[C@H](CCCNC(=N)N)C(=O)N1CCC[C@@H]1C(=O)N[C@H](CCCNC(=N)N)C(=O)N1CCC[C@@H]1C(=O)N[C@H](CC(C)C)C(=O)N[C@H](Cc1ccc(O)cc1)C(=O)N1CCC[C@@H]1C(=O)N1CCC[C@@H]1C(=O)N[C@H](CCCCN)C(=O)N[C@H](CC(=O)O)C(=O)N[C@@H](C(N)=O)C(C)C [SEQ ID NO. 117, rnyirrpprprplyppkdv-NH2] (H-[dR][dN][dY][dI][dR][dR][dP][dP][dR][dP][dR][dP][dL][dY][dP][dP][dK][dD][dV]-NH2) | 64 to 256
CC[C@@H](C)[C@@H](NC(=O)[C@@H](Cc1ccc(O)cc1)NC(=O)[C@@H](CC(N)=O)NC(=O)[C@H](N)CCCN)C(=O)N[C@H](CCCN)C(=O)N[C@H](CCCNC(=N)N)C(=O)N1CCC[C@@H]1C(=O)N1CCC[C@@H]1C(=O)N[C@H](CCCNC(=N)N)C(=O)N1CCC[C@@H]1C(=O)N[C@H](CCCNC(=N)N)C(=O)N1CCC[C@@H]1C(=O)N[C@H](CC(C)C)C(=O)N[C@H](Cc1ccc(O)cc1)C(=O)N1CCC[C@@H]1C(=O)N1CCC[C@@H]1C(=O)N[C@H](CCCCN)C(=O)N[C@H](CC(=O)O)C(=O)N[C@@H](C(N)=O)C(C)C [SEQ ID NO. 118, onyiorpprprplyppkdv-NH2] (H-[dOrn][dN][dY][dI][dOrn][dR][dP][dP][dR][dP][dR][dP][dL][dY][dP][dP][dK][dD][dV]-NH2) | 64 to 256
CC[C@H](C)[C@H](NC(=O)[C@@H](CCCNC(=N)N)NC(=O)[C@H](CCCNC(=N)N)NC(=O)[C@@H]1CCCN1C(=O)[C@@H]1CCCN1C(=O)[C@H](CCCNC(=N)N)NC(=O)[C@@H]1CCCN1C(=O)[C@H](CCCNC(=N)N)NC(=O)[C@@H]1CCCN1C(=O)[C@H](CC(C)C)NC(=O)[C@H](Cc1ccc(O)cc1)NC(=O)[C@@H]1CCCN1C(=O)[C@@H]1CCCN1C(=O)[C@H](CCCCN)NC(=O)[C@H](CC(=O)O)NC(=O)[C@@H](N)C(C)C)C(=O)N[C@@H](Cc1ccc(O)cc1)C(=O)N[C@@H](CC(N)=O)C(=O)N[C@H](CCCNC(=N)N)C(N)=O [compound 112] (H-VDKPPYLPRPRPPR[dR]IYN[dR]-NH2) | 4 (≈ 1.67 µM)
H-VDKPPYLPRPPPPRRIYN-NH2 [compound 1] | 128
H-VDKPPYLPRPRPPRRIYNH-NH2 [SEQ ID NO. 53] | 16
